Test results reported in ChEMBL document CHEMBL5661979, “Pharmacological inhibition of BMK1 suppresses tumor growth through promyelocytic leukemia protein” (Cancer Cell, 2010).

How the values were obtained:
[1] = biological target: T1, Phosphatidylinositol 3-kinase catalytic subunit type 3 (Homo sapiens, UniProt Q8NEB9); assay: Inhibition of PIK3C3 in human HeLa cells lysate at 2 uM pre incubated for 15 mins followed by ATP acyl phosphate probe addition and measured after 10 mins by LC-MS/MS analysis relative to control; format: subcellular; settings: time 25.0 min
[2] = Inhibition of MST4/YSK1 in human HeLa cells lysate at 50 uM pre incubated for 15 mins followed by ATP acyl phosphate probe addition and measured after 10 mins by LC-MS/MS analysis relative to control; settings: 25 min, condition cancer
[3] = biological target: T1, Phosphatidylinositol 3-kinase catalytic subunit type 3; assay: Inhibition of PIK3C3 in human HeLa cells lysate pre incubated for 15 mins followed by ATP acyl phosphate probe addition and measured after 10 mins by LC-MS/MS analysis; format: subcellular
[4] = biological target: Serine/threonine-protein kinase DCLK2 (Homo sapiens) (UniProt Q8N568); assay: Inhibition of DCAMKL2 (unknown origin) assessed as remaining activity at 10 uM by ATP-competition binding assay relative to control
[5] = biological target: T2, Dual specificity mitogen-activated protein kinase kinase 6 (Homo sapiens) (UniProt P52564); assay: Inhibition of MAP2K6 in human HeLa cells lysate at 10 uM pre incubated for 15 mins followed by ATP acyl phosphate probe addition and measured after 10 mins by LC-MS/MS analysis relative to control; format: subcellular; settings: time 25.0 min
T2 sequence (whole entry): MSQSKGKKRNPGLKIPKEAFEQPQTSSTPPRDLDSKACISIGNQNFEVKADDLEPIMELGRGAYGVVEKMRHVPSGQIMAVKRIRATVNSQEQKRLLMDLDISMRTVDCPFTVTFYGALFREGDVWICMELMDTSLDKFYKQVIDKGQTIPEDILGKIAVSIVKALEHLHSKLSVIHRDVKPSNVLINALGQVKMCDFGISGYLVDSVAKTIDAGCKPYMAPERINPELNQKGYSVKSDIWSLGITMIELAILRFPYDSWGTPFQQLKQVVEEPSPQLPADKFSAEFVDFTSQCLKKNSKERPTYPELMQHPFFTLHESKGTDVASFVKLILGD

[6] = biological target: Ribosomal protein S6 kinase beta-2 (Homo sapiens, UniProt Q9UBS0); assay: Inhibition of P70S6KB in human HeLa cells lysate pre incubated for 15 mins followed by ATP acyl phosphate probe addition and measured after 10 mins by LC-MS/MS analysis; format: subcellular
[7] = biological target: T3, Serine/threonine-protein kinase 4 (Homo sapiens) (UniProt Q13043); assay: Inhibition of MST1 in human HeLa cells lysate at 10 uM pre incubated for 15 mins followed by ATP acyl phosphate probe addition and measured after 10 mins by LC-MS/MS analysis relative to control; format: subcellular; settings: time 25.0 min
T3 sequence (whole entry): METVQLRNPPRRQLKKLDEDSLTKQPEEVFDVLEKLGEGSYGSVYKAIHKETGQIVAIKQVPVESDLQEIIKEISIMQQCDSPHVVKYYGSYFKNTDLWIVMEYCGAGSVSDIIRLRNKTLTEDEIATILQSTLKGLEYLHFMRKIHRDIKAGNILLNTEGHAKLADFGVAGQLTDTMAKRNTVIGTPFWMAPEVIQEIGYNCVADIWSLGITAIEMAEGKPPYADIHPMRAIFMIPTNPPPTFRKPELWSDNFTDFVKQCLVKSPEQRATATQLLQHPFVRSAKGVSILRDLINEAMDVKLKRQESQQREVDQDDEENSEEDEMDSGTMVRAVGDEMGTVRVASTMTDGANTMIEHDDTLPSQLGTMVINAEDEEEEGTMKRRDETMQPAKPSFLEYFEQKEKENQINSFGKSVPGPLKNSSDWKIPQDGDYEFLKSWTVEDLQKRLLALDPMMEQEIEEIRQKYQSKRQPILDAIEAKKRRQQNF

[8] = biological target: STE20-like serine/threonine-protein kinase (Homo sapiens, UniProt Q9H2G2); assay: Inhibition of SLK in human HeLa cells lysate at 50 uM pre incubated for 15 mins followed by ADP acyl phosphate probe addition and measured after 10 mins by LC-MS/MS analysis relative to control; format: subcellular; settings: time 25.0 min
[9] = biological target: T4, Phosphorylase b kinase gamma catalytic chain, liver/testis isoform (Homo sapiens) (UniProt P15735); assay: Inhibition of PHKg2 in human HeLa cells lysate at 50 uM pre incubated for 15 mins followed by ATP acyl phosphate probe addition and measured after 10 mins by LC-MS/MS analysis relative to control; format: subcellular; settings: time 25.0 min
T4 sequence (whole entry): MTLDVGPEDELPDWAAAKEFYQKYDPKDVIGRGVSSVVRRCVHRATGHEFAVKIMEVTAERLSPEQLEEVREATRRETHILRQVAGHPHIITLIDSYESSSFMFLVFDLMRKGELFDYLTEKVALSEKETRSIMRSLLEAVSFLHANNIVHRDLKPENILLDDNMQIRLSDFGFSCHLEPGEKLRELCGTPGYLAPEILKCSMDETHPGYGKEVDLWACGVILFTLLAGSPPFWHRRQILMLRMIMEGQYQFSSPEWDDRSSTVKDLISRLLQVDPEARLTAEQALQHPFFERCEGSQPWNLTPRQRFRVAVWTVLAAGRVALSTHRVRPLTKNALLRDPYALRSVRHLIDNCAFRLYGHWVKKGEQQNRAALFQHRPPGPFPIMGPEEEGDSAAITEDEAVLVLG

[10] = biological target: T5, Serine/threonine-protein kinase 3 (Homo sapiens) (UniProt Q13188); assay: Inhibition of MST2 in human HeLa cells lysate at 2 uM pre incubated for 15 mins followed by ADP acyl phosphate probe addition and measured after 10 mins by LC-MS/MS analysis relative to control; format: subcellular; settings: time 25.0 min
T5 sequence (whole entry): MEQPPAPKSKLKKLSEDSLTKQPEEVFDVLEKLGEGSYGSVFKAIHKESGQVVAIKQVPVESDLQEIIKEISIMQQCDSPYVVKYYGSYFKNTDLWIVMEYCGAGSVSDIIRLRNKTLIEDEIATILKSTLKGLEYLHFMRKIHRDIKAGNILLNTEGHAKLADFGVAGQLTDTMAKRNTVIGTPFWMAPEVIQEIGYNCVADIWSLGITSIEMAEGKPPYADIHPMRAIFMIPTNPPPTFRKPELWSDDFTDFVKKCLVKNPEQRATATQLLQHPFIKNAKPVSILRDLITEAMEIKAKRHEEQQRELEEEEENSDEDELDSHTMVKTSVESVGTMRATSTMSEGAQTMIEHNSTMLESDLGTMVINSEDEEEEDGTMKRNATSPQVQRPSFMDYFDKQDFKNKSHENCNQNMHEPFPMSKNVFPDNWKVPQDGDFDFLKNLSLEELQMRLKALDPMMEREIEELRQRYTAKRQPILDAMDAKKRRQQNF

T1 sequence (Q8NEB9 whole entry): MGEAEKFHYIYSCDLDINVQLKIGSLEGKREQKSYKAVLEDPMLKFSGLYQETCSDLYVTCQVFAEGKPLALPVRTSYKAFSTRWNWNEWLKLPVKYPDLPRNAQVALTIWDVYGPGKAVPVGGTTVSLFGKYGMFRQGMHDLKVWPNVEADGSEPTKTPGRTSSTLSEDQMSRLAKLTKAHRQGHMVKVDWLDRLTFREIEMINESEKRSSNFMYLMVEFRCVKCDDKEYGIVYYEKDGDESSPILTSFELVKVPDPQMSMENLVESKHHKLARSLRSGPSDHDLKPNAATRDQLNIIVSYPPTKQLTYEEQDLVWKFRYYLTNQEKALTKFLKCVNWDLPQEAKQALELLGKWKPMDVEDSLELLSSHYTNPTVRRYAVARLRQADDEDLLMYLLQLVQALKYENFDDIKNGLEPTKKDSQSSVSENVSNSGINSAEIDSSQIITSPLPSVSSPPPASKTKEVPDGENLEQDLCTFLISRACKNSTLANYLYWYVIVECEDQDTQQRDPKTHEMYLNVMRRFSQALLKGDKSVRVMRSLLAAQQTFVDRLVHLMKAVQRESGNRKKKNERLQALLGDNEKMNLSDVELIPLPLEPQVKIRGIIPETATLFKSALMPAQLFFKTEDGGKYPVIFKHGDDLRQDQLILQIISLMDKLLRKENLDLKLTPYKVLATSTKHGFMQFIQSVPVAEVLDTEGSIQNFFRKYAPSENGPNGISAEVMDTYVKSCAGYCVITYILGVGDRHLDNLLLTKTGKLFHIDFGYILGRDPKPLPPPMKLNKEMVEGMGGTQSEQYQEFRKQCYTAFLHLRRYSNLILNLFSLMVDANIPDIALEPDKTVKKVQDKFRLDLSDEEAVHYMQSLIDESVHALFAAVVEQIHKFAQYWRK
Chain of Serine/threonine-protein kinase DCLK2 (Homo sapiens) (Q8N568 whole entry): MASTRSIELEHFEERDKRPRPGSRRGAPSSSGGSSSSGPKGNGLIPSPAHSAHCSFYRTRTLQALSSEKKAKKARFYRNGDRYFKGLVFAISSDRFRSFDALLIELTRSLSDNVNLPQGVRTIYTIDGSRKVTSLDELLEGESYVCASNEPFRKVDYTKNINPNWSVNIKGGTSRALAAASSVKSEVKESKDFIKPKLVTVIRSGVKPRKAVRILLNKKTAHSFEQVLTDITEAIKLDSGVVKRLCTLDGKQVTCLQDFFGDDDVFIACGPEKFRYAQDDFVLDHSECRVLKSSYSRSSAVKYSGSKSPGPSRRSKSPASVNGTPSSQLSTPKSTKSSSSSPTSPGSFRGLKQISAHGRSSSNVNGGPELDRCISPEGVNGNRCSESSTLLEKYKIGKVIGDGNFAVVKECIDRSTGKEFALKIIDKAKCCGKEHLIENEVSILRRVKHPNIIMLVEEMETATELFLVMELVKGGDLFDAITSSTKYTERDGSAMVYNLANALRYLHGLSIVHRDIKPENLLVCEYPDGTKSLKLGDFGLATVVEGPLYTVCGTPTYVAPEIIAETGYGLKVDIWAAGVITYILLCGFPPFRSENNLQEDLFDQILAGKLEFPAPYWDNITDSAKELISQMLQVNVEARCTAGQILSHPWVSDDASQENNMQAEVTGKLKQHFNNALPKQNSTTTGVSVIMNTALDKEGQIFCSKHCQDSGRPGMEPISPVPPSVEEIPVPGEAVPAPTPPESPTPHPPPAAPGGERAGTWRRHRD
Chain of STE20-like serine/threonine-protein kinase (Q9H2G2 whole entry, looked up, canonical isoform): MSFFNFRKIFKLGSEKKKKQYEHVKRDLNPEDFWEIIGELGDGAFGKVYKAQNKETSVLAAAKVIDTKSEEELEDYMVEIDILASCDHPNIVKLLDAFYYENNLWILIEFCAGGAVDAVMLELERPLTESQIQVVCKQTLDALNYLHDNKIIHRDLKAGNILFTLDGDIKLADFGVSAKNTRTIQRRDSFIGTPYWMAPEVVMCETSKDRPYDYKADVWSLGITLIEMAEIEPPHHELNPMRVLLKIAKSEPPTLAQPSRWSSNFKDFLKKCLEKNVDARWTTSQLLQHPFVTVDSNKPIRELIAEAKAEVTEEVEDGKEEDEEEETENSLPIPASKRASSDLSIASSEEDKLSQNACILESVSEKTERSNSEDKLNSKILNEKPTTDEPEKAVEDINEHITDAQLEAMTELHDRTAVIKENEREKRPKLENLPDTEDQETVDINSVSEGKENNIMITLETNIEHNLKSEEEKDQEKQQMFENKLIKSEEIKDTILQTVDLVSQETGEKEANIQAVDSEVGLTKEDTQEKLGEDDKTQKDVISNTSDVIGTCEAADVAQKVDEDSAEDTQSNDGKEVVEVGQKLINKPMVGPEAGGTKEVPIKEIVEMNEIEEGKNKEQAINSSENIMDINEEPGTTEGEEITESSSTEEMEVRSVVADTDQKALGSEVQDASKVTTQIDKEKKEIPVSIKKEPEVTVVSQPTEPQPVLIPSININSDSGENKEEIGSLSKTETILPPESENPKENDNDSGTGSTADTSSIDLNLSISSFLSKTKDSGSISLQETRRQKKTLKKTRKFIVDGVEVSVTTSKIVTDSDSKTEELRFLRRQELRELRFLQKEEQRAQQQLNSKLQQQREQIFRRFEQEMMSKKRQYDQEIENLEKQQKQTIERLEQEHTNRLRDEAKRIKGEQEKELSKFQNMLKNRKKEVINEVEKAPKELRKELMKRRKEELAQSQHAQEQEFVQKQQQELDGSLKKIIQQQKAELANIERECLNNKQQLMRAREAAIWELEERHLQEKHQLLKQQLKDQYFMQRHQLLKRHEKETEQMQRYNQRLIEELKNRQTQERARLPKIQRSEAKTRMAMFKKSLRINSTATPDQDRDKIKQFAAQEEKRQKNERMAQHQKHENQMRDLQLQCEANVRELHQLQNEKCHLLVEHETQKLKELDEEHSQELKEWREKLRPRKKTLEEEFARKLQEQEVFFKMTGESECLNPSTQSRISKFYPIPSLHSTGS
Chain of Ribosomal protein S6 kinase beta-2 (Q9UBS0 whole entry): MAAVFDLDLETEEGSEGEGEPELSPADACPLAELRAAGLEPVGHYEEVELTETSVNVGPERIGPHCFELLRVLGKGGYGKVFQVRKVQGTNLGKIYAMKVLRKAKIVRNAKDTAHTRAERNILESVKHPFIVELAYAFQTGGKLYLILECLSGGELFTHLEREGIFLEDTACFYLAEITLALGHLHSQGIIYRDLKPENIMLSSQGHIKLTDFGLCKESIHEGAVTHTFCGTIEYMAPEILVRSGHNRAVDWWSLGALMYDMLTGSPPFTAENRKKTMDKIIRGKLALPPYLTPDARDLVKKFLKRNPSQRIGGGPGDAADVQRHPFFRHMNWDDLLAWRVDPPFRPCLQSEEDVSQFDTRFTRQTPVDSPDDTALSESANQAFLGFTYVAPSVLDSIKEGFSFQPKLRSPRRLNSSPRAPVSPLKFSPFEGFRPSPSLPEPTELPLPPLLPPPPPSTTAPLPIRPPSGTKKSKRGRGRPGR

## CCOc1cc(N2CCC(O)CC2)ccc1Nc1ncc2c(n1)N(C)c1ccccc1C(=O)N2C
[1]
  inhibition: -0.4%
[2]
  inhibition at 50 µM: -6.1%
[3]
  IC50: > 50 µM
[4]
  Activity: 0.65%
[5]
  inhibition: -9%
[6]
  IC50: > 50 µM
[7]
  inhibition: 1.1%
[8]
  inhibition: 20.9%
[9]
  inhibition: 8.5%
[10]
  inhibition: 26.2%
